# Columns and labels:
# [1] = system: larvae of the mustard beetle (Phaedon cochleariae); experiment: Phaedon cochleariae spray test (PHAECO); format: in vivo; details: Chinese cabbage leaf discs, after 7 days
# Method in brief: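 Kill of mustard beetle larvae is read as % mortality 7 days after spraying. Spray liquid: active compound in acetone plus dimethylformamide, brought up with water holding 1000 ppm alkylaryl polyglycol ether emulsifier and diluted further in emulsifier-water.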
# [2] = system: adult cat fleas (Ctenocephalides felis); experiment: Ctenocephalides felis in vitro contact test with adult cat fleas (T1); details: after 48 h
# Method in brief: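 Adult cat fleas (Ctenocephalides felis), 5-10 per tube, were exposed to the inner surface of 25 ml test tubes coated with compound in acetone. Tubes were incubated lying flat under ambient conditions. Efficacy was then read by standing tubes upright and knocking the fleas to the floor. Fleas that stayed motionless or moved uncoordinatedly counted as dead or moribund, where 100% means all fleas dead or moribund and 0% means none harmed.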
# [3] = logP determination by HPLC on a reversed-phase column (C18), EEC Directive 79/831 Annex V.A8; format: physicochemical; details: HPLC on reversed-phase column (C18), acetonitrile/water with formic acid, EEC Directive 79/831 Annex V.A8
# Method in brief: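 Per EEC 79/831 Annex V.A8, values derive from HPLC retention at 2.0 ml/min and 55° C on a 50*4.6 C18 column. The 10→95% acetonitrile gradient (0.1%/0.09% formic acid) lasted 4.25 min plus a 1.25 min hold; mass detection was by MSD.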
# [4] = system: caterpillars of the armyworm (Spodoptera frugiperda); experiment: Spodoptera frugiperda spray test (SPODFR); format: in vivo; details: maize leaf discs, after 7 days
# Method in brief: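 Percent kill read at day 7 on caterpillar-infested maize leaf discs. Discs were first sprayed with aqueous emulsifier-containing (1000 ppm) preparations made from acetone/dimethylformamide solutions, and dried. Scale: 0% none dead, 100% all dead.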
# [5] = system: greenhouse red spider mite (Tetranychus urticae); experiment: Tetranychus urticae spray test, OP-resistant (TETRUR); format: in vivo; details: bean leaf discs, after 6 days
# Method in brief: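 Percent kill, scored 6 days post-spray (0% = none dead, 100% = all dead), on Phaseolus vulgaris leaf discs infested with every life stage of the OP-resistant spider mite. Compound dissolved in acetone plus DMF, diluted to test concentration with emulsifier-containing water (1000 ppm).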
# [6] = system: adult dog ticks (Rhipicephalus sanguineus); experiment: Rhipicephalus sanguineus in vitro contact test with adult brown dog ticks (T2); details: after 48 h
# Method in brief: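 Acetone solutions coated onto test tube walls and floor, giving 5 μg/cm^2 at 900 ppm. Five to ten adult ticks held per tube in the dark at room temperature for 48 h, then heated at 45-50° C for up to 5 min; efficacy is the percentage of dead or moribund ticks unable to climb away.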
# [7] = system: L1 larvae of the Australian sheep blowfly (Lucilia cuprina); experiment: Lucilia cuprina test (LUCICU); format: in vivo; details: application rate 100 ppm; after 2 days
# Method in brief: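 Percent mortality read at 2 days; 100% = all larvae killed, 0% = none. Test compound, predissolved in DMSO and water-diluted to the wanted level, was mixed into minced horsemeat holding roughly 20 first-instar larvae.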
# [8] = system: adult cat fleas (Ctenocephalides felis); experiment: Ctenocephalides felis oral test (CTECFE); format: in vivo; details: application rate 100 ppm in citrated cattle blood; after 2 days
# Method in brief: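 Mortality read at 2 days as percent of fleas killed. Compound predissolved in DMSO, diluted into citrated cattle blood and offered to roughly 20 unfed adult C. felis via parafilm membrane feeder.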
# [9] = system: adult houseflies (Musca domestica); experiment: Musca domestica test (MUSCDO); format: in vivo; details: application rate 100 ppm; after 2 days
# Method in brief: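 Groups of 10 adult Musca domestica exposed to a sugar-soaked sponge treated with the water-diluted DMSO preparation of compound at the chosen concentration. Percent kill read at day 2, where 0% means no flies killed and 100% all killed.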
# [10] = system: green peach aphid (Myzus persicae); experiment: Myzus persicae spray test (MYZUPE); format: in vivo; details: Chinese cabbage leaf discs, after 6 days
# Method: G. Myzus persicae-spray Test (MYZUPE)
# Solvents: 78 parts by weight of acetone
# • 1.5 parts by weight of dimethylformamide Emulsifier: alkylaryl polyglycol ether
# To produce a suitable preparation of active compound, 1 part by weight of active compound is dissolved using the stated parts by weight of solvent and made up with water comprising an emulsifier concentration of 1000 ppm until the desired concentration is reached. To produce further test concentrations, the preparation is diluted with emulsifier-containing water.
# Discs of Chinese cabbage leaves (Brassica pekinensis) infested by all stages of the green peach aphid (Myzus persicae) are sprayed with an active compound preparation of the desired concentration.
# After 6 days, the efficacy in % is determined 100% here means that all of the aphids have been killed; 0% means that no aphids have been killed.
# [11] = system: engorged adult female cattle ticks (Boophilus microplus); experiment: Boophilus microplus injection test (BOOPMI Inj); format: in vivo; details: application rate 20 μg/animal; injection into abdomen; assessed after 7 days
# Method in brief: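 Efficacy is read at 7 days as fertile egg laying (100% = no fertile eggs laid; 0% = all eggs fertile), with eggs of unclear fertility stored until larvae hatch at about 42 days. Five engorged adult females per dose each receive an abdominal injection of 1 μl compound dissolved in DMSO.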
# [12] = system: cattle ticks (Boophilus microplus) Parkhurst strain, SP-resistant; experiment: Boophilus microplus dip test (BOOPMI Dip); format: in vivo; details: application rate 100 ppm, assessed after 7 days
# Method: B. Boophilus microplus-dip Test (BOOPMI Dip)
# Test animals: cattle ticks (Boophilus microplus) Parkhurst strain, SP-resistant
# Solvent: dimethyl sulphoxide
# 10 mg of active compound are dissolved in 0.5 ml of dimethyl sulphoxide. For the purpose of preparing a suitable formulation, the active compound solution is diluted with water to the concentration desired in each case.
# This active compound preparation is pipetted into tubes. 8-10 adult engorged female cattle ticks (Boophilus microplus) are transferred into a further tube with holes. The tube is immersed into the active compound formulation, and all ticks are completely wetted. After the liquid has run out, the ticks are transferred on filter discs into plastic dishes and stored in a climate-controlled room.
# The activity is assessed after 7 days by laying of fertile eggs. Eggs whose fertility is not visible from the outside are stored in a climate-controlled cabinet until the larvae hatch after about 42 days. An efficacy of 100% means that none of the ticks has laid any fertile eggs; 0% means that all eggs are fertile.
Structure (SMILES),efficacy in % ([1]; application rate 100 g/ha),efficacy (dead or moribund fleas) ([2]; application rate 1 μg/cm^2),efficacy (dead or moribund fleas) ([2]; application rate 5 μg/cm^2),logP [3],efficacy in % ([4]; application rate 100 g/ha),efficacy in % ([5]; application rate 100 g/ha),efficacy (dead or moribund ticks) ([6]; application rate 5 μg/cm^2),efficacy (kill in %) [7],efficacy (kill in %) [8],efficacy (kill in %) [9],efficacy in % ([10]; application rate 100 g/ha),efficacy (laying of fertile eggs) [11],efficacy in % ([1]; application rate 500 g/ha),efficacy in % ([4]; application rate 500 g/ha),efficacy in % ([5]; application rate 500 g/ha),efficacy (dead or moribund ticks) ([6]; application rate 1 μg/cm^2),efficacy in % ([10]; application rate 500 g/ha),efficacy (laying of fertile eggs) [12]
Cn1nc(C(F)(F)C(F)(F)F)c(C(F)(F)F)c1-n1cc(-c2ccc(Cl)c(C(=O)NC3CSC3)c2)cn1 [Ic-28],100%,100%,100%,4.09,100%,100%,100%,100%,100%,100%,90%,100%,,,,,,
Cn1nc(C(F)(F)C(F)(F)F)c(C(F)(F)F)c1-n1cc(-c2cncc(C(=O)NC3(C#N)CC3)c2)cn1 [Ic-71],,100%,100%,,,,100%,100%,100%,80%,,100%,100%,100%,100%,80%,100%,
CSC1CC(NC(=O)c2cc(-c3cnn(-c4c(C(F)(F)F)c(C(F)(F)C(F)(F)F)nn4C)c3)ccc2Cl)C1 (stereo not shown) [Ic-108],100%,100%,100%,4.28,83%,100%,80%,,,,90%,,,,,,,
Cn1nc(C(F)(F)C(F)(F)F)c(C(F)(F)F)c1-n1cc(-c2ccc(Cl)c(C(=O)NC3(C(N)=O)CC3)c2)cn1 [Ic-29],100%,100%,100%,3.07,100%,,,100%,100%,100%,,100%,,,,,,80%
Cc1nnc(NC(=O)c2cc(-c3cnn(-c4c(C(F)(F)F)c(C(F)(F)C(F)(F)F)nn4C)c3)ccc2Cl)o1 [Ic-158],,100%,100%,,,,,100%,100%,90%,,100%,,,,,,100%
Cc1coc(NC(=O)c2cc(-c3cnn(-c4c(C(F)(F)F)c(C(F)(F)C(F)(F)F)nn4C)c3)ccc2Cl)n1 [Ic-160],,100%,100%,,,,100%,100%,100%,100%,,100%,,,,100%,,100%
Cn1nc(C(F)(F)C(F)(F)F)c(C(F)(F)F)c1-n1cc(-c2cc(C(=O)NC3CC3)ccc2F)cn1 [Ic-41],,100%,100%,,,,,100%,100%,100%,,100%,100%,100%,100%,,100%,
Cn1nccc1NC(=O)c1cc(-c2cnn(-c3c(C(F)(F)F)c(C(F)(F)C(F)(F)F)nn3C)c2)ccc1Cl [Ic-163],,100%,100%,,,,,100%,100%,90%,,100%,100%,100%,100%,100%,90%,
CSCCNC(=O)c1cc(-c2cnn(-c3c(C(F)(F)F)c(C(F)(F)C(F)(F)F)nn3C)c2)ccc1Cl [Ic-167],,100%,100%,,,,100%,,,,,,100%,100%,100%,100%,90%,
Cn1nc(C(F)(F)C(F)(F)F)c(C(F)(F)F)c1-n1cc(-c2cccc(C(=O)NC3(C#N)CC3)c2F)cn1 [Ic-40],,,,,,,,100%,100%,100%,,100%,100%,100%,100%,,100%,
Cn1nc(C(F)(F)C(F)(F)F)c(C(F)(F)F)c1-n1cc(-c2cc(F)c(F)c(C(=O)NC3CC3)c2)cn1 [Ic-55],,,,,,,,100%,100%,100%,,100%,100%,100%,80%,,100%,
Cn1nc(C(F)(F)C(F)(F)F)c(C(F)(F)F)c1-n1cc(-c2cncc(C(=O)NC3CC3)c2)cn1 [Ic-70],,100%,100%,,,,100%,100%,100%,100%,,100%,100%,100%,,100%,90%,
Cn1nc(C(F)(F)C(F)(F)F)c(C(F)(F)F)c1-n1cc(-c2ccc(F)c(C(=O)NC3(C#N)CC3)c2F)cn1 [Ic-175],,100%,100%,,,,,100%,100%,100%,,100%,100%,100%,100%,,,90%
Cc1ccc(-c2cnn(-c3c(C(F)(F)F)c(C(F)(F)C(F)(F)F)nn3C)c2)cc1C(=O)NC1CC1 [Ic-130],100%,,,3.76,,,,,,,,,,,,,,100%
